Data taken from paper PMC7486443, “Generation of Phenothiazine with Potent Anti-TLK1 Activity for Prostate Cancer Therapy” (iScience, 2020).

What was measured:
Assay in all cases: biochemical
Parameters in all cases: DiscoverX KINOMEscan scanMAX competition binding panel, single concentration, percent of control; remaining binding: dose or concentration left out as unconfirmed
Conditions in all cases: KINOMEscan binding, percent of control; read-out: Table S4_SCANMAX REPORT - related to Fig. 1 / Percent Control
LATS1 = LATS1 (Homo sapiens, UniProt O95835)
MAP4K4 = MAP4K4 (Homo sapiens, UniProt O95819)
Sequence of MAP4K4 (O95819 whole entry): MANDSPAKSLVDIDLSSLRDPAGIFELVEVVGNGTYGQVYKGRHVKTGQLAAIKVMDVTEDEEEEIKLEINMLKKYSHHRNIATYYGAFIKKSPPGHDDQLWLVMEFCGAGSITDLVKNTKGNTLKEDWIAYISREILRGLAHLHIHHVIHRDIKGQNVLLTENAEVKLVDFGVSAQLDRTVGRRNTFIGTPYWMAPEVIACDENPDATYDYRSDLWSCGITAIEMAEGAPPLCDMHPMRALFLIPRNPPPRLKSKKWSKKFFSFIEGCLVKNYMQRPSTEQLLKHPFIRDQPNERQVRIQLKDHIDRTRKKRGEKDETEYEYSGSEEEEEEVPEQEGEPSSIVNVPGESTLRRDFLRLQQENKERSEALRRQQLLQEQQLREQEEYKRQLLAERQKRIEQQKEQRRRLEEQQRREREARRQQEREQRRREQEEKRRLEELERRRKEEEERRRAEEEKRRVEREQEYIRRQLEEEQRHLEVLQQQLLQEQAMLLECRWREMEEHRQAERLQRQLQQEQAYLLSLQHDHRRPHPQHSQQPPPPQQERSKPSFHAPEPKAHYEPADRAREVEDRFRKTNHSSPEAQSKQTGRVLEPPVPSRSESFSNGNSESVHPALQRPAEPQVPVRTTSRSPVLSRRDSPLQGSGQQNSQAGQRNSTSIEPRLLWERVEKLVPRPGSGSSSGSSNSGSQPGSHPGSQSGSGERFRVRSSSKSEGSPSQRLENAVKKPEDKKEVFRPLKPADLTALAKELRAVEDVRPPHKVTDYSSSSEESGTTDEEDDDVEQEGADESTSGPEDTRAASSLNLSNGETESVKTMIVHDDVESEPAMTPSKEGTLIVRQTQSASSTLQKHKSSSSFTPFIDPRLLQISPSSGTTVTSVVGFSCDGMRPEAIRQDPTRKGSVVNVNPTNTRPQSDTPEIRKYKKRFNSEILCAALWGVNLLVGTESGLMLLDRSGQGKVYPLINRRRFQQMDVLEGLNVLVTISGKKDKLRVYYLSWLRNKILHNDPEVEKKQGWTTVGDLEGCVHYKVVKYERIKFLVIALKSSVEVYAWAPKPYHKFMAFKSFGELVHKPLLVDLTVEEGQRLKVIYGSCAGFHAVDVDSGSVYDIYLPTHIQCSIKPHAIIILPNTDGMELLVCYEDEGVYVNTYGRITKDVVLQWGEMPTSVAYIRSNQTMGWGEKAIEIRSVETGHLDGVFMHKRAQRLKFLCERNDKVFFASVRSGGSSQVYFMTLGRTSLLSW

CAMK1B = molecular target: T1, CAMK1B (Homo sapiens, UniProt Q6P2M8)
T1 construct: gene PNCK
T1 sequence (Q6P2M8 whole entry): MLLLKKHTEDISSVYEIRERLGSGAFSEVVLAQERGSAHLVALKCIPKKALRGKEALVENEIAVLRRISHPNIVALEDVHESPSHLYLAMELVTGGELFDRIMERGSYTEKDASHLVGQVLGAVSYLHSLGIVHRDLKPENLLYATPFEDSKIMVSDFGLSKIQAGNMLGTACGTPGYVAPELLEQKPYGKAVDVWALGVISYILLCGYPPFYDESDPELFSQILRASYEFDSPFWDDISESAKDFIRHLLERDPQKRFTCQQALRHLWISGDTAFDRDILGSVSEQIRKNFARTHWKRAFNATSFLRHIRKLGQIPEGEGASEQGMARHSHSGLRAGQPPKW

BUB1 = BUB1 (Homo sapiens, UniProt O43683)
OSR1 = molecular target: T2, OSR1 (Homo sapiens, UniProt O95747)
T2 construct: gene OXSR1
T2 sequence (O95747 whole entry): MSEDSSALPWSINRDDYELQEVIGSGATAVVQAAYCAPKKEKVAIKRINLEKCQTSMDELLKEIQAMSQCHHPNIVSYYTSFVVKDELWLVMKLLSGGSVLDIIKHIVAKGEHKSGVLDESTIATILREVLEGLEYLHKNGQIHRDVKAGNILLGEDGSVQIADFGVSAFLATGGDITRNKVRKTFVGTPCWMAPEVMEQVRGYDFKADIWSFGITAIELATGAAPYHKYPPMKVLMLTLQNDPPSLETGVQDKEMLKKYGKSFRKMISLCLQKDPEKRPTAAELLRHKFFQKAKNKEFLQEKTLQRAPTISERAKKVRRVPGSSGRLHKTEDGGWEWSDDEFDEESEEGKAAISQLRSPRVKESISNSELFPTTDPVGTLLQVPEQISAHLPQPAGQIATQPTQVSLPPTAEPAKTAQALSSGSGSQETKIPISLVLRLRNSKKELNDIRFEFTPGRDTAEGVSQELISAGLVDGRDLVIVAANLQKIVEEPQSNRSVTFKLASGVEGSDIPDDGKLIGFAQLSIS

FLT1 = FLT1 (Homo sapiens, UniProt P17948)
CAMK1G = CAMK1G (Homo sapiens, UniProt Q96NX5)
Sequence of CAMK1G (Q96NX5 whole entry): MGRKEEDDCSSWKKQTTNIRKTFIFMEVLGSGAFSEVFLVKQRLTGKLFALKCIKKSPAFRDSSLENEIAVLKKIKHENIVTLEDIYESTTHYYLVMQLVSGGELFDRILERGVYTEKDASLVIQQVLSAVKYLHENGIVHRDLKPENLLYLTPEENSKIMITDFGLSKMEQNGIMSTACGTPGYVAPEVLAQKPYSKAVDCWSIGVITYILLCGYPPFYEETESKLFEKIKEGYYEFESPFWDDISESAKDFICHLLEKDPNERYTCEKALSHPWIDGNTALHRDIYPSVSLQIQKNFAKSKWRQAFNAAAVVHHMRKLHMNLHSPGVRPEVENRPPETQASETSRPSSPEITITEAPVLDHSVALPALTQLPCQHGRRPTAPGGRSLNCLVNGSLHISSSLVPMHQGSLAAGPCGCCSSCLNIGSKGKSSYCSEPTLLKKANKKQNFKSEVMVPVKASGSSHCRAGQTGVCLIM

CDK9 = CDK9 (Homo sapiens, UniProt P50750)
TNK2 = TNK2 (Homo sapiens, UniProt Q07912)
Sequence of TNK2 (Q07912 whole entry): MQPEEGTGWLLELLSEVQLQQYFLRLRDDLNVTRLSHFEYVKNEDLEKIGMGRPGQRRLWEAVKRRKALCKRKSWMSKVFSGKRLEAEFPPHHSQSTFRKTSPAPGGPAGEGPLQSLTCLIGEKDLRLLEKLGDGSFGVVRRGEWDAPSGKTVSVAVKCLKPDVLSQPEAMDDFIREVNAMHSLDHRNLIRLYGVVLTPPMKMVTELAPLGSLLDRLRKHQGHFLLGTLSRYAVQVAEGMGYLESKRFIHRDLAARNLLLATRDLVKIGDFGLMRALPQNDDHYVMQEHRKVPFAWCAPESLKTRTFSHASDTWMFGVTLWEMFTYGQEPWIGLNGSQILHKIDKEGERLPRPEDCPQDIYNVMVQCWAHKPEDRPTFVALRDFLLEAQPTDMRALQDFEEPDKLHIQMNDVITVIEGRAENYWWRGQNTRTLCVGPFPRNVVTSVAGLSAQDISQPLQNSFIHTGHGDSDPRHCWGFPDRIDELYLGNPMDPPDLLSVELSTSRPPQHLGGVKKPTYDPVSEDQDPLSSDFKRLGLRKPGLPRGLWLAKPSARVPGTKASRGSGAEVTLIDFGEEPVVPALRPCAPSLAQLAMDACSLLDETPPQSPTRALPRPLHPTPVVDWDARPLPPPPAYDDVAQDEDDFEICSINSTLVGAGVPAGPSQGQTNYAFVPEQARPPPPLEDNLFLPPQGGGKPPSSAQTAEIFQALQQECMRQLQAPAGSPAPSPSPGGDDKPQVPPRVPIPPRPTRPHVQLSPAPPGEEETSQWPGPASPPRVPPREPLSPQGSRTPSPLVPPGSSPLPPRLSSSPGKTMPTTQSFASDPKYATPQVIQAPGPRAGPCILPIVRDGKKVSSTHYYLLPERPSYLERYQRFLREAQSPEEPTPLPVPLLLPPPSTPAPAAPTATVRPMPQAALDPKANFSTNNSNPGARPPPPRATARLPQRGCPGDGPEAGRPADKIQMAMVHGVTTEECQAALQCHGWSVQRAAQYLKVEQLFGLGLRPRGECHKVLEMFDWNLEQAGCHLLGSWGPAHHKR

FRK = FRK (Homo sapiens, UniProt P42685)
ACVR2A = ACVR2A (Homo sapiens, UniProt P27037)
Sequence of ACVR2A (P27037 whole entry): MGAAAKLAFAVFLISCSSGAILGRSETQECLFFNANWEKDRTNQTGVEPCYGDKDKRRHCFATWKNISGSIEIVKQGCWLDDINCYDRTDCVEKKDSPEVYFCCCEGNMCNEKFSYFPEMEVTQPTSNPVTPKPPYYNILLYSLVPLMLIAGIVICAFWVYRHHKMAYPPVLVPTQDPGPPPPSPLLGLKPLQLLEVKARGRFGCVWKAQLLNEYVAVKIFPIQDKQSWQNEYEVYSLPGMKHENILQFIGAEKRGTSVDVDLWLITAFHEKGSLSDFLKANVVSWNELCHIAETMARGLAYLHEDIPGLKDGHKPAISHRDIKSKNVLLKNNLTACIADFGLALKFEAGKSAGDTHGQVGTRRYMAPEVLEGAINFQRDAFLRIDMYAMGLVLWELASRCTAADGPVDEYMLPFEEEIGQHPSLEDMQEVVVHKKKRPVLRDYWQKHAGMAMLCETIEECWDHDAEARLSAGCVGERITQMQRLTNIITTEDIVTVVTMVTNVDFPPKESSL

SIK2 = SIK2 (Homo sapiens, UniProt Q9H0K1)
Sequence of SIK2 (Q9H0K1 whole entry): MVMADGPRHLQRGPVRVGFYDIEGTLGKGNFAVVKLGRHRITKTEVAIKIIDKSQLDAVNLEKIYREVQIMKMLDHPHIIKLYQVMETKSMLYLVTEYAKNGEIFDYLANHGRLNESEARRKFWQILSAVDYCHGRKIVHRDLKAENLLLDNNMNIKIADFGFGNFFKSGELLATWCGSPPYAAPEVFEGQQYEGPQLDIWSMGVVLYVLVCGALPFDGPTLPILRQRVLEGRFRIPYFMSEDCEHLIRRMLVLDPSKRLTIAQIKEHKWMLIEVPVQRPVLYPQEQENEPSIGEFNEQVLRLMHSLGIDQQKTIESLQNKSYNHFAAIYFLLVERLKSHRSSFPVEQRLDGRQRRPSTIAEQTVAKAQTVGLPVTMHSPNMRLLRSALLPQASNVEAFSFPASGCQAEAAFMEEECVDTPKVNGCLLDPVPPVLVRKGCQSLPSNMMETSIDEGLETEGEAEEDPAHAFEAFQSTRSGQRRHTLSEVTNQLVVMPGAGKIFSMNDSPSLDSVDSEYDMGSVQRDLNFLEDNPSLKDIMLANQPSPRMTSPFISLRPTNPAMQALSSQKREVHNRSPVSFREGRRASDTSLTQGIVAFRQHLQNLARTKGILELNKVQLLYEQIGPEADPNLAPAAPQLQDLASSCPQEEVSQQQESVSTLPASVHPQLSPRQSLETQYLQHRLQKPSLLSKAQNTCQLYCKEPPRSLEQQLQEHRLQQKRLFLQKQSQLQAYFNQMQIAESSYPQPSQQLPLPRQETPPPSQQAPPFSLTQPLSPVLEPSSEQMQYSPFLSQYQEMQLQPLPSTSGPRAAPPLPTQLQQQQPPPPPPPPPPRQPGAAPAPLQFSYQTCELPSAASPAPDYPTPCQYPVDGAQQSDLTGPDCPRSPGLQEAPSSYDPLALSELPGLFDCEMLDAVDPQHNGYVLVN

JNK1 = molecular target: T3, JNK1 (Homo sapiens, UniProt P45983)
T3 construct: gene MAPK8

MTOR = MTOR (Homo sapiens, UniProt P42345)
FLT3-autoinhibited = FLT3-autoinhibited (Homo sapiens, UniProt P36888)
AXL = AXL (Homo sapiens, UniProt P30530)
PRKCI = PRKCI (Homo sapiens, UniProt P41743)
BMPR1A = BMPR1A (Homo sapiens, UniProt P36894)
FLT3(D835V) = FLT3(D835V) (Homo sapiens, UniProt P36888, D835V)

For c1ccc2c(c1)Sc1ccccc1N2CCN1CCOCC1 [J54], the remaining binding (LATS1) was 81%, the remaining binding (MAP4K4) was 66% and the remaining binding (CAMK1B) was 94%. For the same compound, the remaining binding (BUB1) was 79%, the remaining binding (OSR1) was 100% and the remaining binding (FLT1) was 98%. The remaining binding (CAMK1G) was 100%, the remaining binding (CDK9) was 100% and the remaining binding (TNK2) was 100%. For the same compound, the remaining binding (FRK) was 100%, the remaining binding (ACVR2A) was 86% and the remaining binding (SIK2) was 97%. For the same compound, the remaining binding (JNK1) was 82%, the remaining binding at 15 µM (MTOR) was 100% and the remaining binding (FLT3-autoinhibited) was 100%. The remaining binding (AXL) was 99%, the remaining binding (PRKCI) was 98% and the remaining binding (BMPR1A) was 72%. It also gave a remaining binding (FLT3(D835V)) of 46%.
